This note sets out measurements from patent US11208376B2, “Use of a metal supplement in animal feed” (Nouryon Chemicals International B.V., priority 2009, dated 2021).

Molecules are shown by their SMILES. Marks after values point to notes of the source that are not given here.

The nature of data set [1]: Precipitation test of copper sources with two-fold molar excess of phytic acid, soluble Cu by FAAS. The format is physicochemical. The following applies: one day at ambient temperature. The procedure:
The following 3 concentrations of the final metal concentration were tested, i.e. high (H) at 25 mmol/kg, medium (M) at 5 mmol/kg, and low (L) at 0.5 mmol/kg. For each concentration and pH a separate phytic acid stock solution was prepared by diluting the calculated amount of phytic acid with de-mineralized water, setting the pH with diluted NH4OH solutions, and filling up with demineralized water up to the calculated amount. […] The pH was adjusted to 4.97 with 0.5 M H2SO4. Then an equal number of 0.0125 mol/kg solutions were prepared by diluting the above solutions with demineralized water. […] On all 4 zinc-containing and 3 copper-containing solutions in total 6 precipitation tests were carried out, i.e. at levels H, M, and L and for each level at pH=4 and at pH=6. These tests were marked H4, H6, M4, M6, L4, and L6, respectively. In total 42 samples were obtained in this way. After standing for one day the precipitate was removed and the mother liquor was analyzed for its zinc or copper content by FAAS (Flame Atomic Absorption Spectroscopy). […] The total weight was exactly determined again. The 50 ml test tubes were filled according to Table 1 below.

The nature of data set [2]: Precipitation test of zinc sources with two-fold molar excess of phytic acid, soluble Zn by FAAS. It is filed as physicochemical. Particulars: for Soluble Zn(II) after subjecting complexed or chelated Zn(II) to a two-fold molar excess of phytic acid: one day at ambient temperature. On the procedure: The following 3 concentrations of the final metal concentration were tested, i.e. high (H) at 25 mmol/kg, medium (M) at 5 mmol/kg, and low (L) at 0.5 mmol/kg. For each concentration and pH a separate phytic acid stock solution was prepared by diluting the calculated amount of phytic acid with de-mineralized water, setting the pH with diluted NH4OH solutions, and filling up with demineralized water up to the calculated amount. […] The pH was not adjusted any further. Then an equal number of 0.0125 mol/kg solutions were prepared by diluting the above solutions with demineralized water. […] On all 4 zinc-containing and 3 copper-containing solutions in total 6 precipitation tests were carried out, i.e. at levels H, M, and L and for each level at pH=4 and at pH=6. These tests were marked H4, H6, M4, M6, L4, and L6, respectively. In total 42 samples were obtained in this way. After standing for one day the precipitate was removed and the mother liquor was analyzed for its zinc or copper content by FAAS (Flame Atomic Absorption Spectroscopy). […] The total weight was exactly determined again. The 50 ml test tubes were filled according to Table 1 below.

The conditions of data set [3]: without the presence of phytate; result in words. On the procedure:
A small excess of 2% of the complexing or chelating agent intake was used to prepare the metal-containing solutions. This ensures a complete complexation or chelation of the metal ions. The mixture was dissolved in part of the demineralized water. The pH was adjusted in order to reach a pH value between approximately 4 and 5. All solutions were filled up with demineralized water to 400 g.

[4] abbreviates: H4: pH 4, metal 25 mmol/kg, phytic acid 50 mmol/kg.
The mark [5] stands for this setting: H6: pH 6, metal 25 mmol/kg, phytic acid 50 mmol/kg.
Setting [6] is: L4: pH 4, metal 0.5 mmol/kg, phytic acid 1 mmol/kg.
Where [7] appears, read: L6: pH 6, metal 0.5 mmol/kg, phytic acid 1 mmol/kg.
Where [8] appears, read: M4: pH 4, metal 5 mmol/kg, phytic acid 10 mmol/kg.
Setting [9] is: M6: pH 6, metal 5 mmol/kg, phytic acid 10 mmol/kg.

For `O=S(=O)([O-])[O-].[Cu+2]` [CuSO4], the “Soluble Cu(II) after subjecting complexed or chelated Cu(II) to a two-fold molar excess of phytic acid” value in data set [1] (setting [4]) is 64* % (mol/mol); in data set [1] (setting [5]) it was 26* % (mol/mol); in data set [1] (setting [6]), 97 % (mol/mol); in data set [1] (setting [7]), 80 % (mol/mol); in data set [1] (setting [8]), 97* % (mol/mol); in data set [1] (setting [9]), 36* % (mol/mol).

Turning to `CSCC[C@H](N)C(=O)[O-].CSCC[C@H](N)C(=O)[O-].[Zn+2]` [Zn(Methionine)2], the “Soluble Zn(II) after subjecting complexed or chelated Zn(II) to a two-fold molar excess of phytic acid” value in data set [2] (setting [4]) is listed as 21* % (mol/mol); in data set [2] (setting [5]) it was 32* % (mol/mol); in data set [2] (setting [6]), 99 % (mol/mol); in data set [2] (setting [7]), 63 % (mol/mol); in data set [2] (setting [8]), 55* % (mol/mol); in data set [2] (setting [9]) it was 13* % (mol/mol). For the same compound, in data set [2] (levels H, M, L, result in words), the “Appearance (clear solution or precipitate) of zinc source combined with phytic acid” value is on record as “immediately a precipitate was formed”.

For `CSCC[C@H](N)C(=O)O.[Cu]` [copper methionine], the Solubility in water result in data set [3] was “insoluble in water”.
